Laboratory results as given in US8030293B2, “Methods of optimizing drug therapeutic efficacy for treatment of immune-mediated gastrointestinal disorders” (Hopital-Sainte-Justine, priority 1998, dated 2011).
Read-outs that look alike come from different tables or passages of the source. Marks after values point to notes of the source that are not given here.

Assays:
[1] = erythrocytes
Text: The 93 patients were pediatric patients, with 80 diagnosed as having CD, 8 diagnosed as having UC, and 5 diagnosed as having indeterminate colitis (CD or UC). All but 7 patients were given AZA. The dosages were converted to 6-MP equivalents using a factor of 2.07 as described in Example I. For some patients, two or more samples were obtained and analyzed. Response to 6-MP was defined by clinical remission (HBI<5, closed fistula) without corticosteroids. Disease activity and physical exam were ascertained at each clinic visit at which 6-MP metabolite levels were determined (clinical evaluation point). Hematological, pancreatic and hepatic laboratory parameters were evaluated simultaneously Erythrocyte 6-TG and 6-MMP concentrations (pmol/8×10^8 RBC) were measured by HPLC (Cuffari et al., supra, 1996a).
The number of samples corresponds to the number of different samples obtained from the 93 patients.

[2] = human, in vivo
Method: All but 7 patients were given AZA.
Toxicity was measured essentially as described previously (Cuffari et al., supra; 1996a).

[3] = 6-MP metabolite levels by gender and age in pediatric IBD patients (Example III); format: in vivo, human; conditions: for 6-MMP level / 6-TG level: TPMT wild type
Method: These patients were wild type for TPMT. Patients were assessed based on gender and age as it relates to puberty. Puberty is established at 12 years of age in girls and 14 years of age in boys.

[4] = Responsiveness to 6-MP drug therapy by TPMT genotype in IBD patients (Example IV); format: in vivo, human
Method: The genotype of TPMT was determined in IBD patients that were responders and non responders. Genotyping of TPMT was measured essentially as described previously (Baccichet et al., Leuk. Res. 21:817-823 (1997); Zietkiewicz et al., Gene 205:161-171 (1997)).

[5] = 6-TG levels by TPMT genotype in IBD patients (Example IV); format: in vivo, human; conditions: for mean 6-TG: in pmol/8×10^8 RBC
Method: The genotype of TPMT was determined in IBD patients that were responders and non responders. Genotyping of TPMT was measured essentially as described previously (Baccichet et al., Leuk. Res. 21:817-823 (1997); Zietkiewicz et al., Gene 205:161-171 (1997)). […] All heterozygote patients were responders to 6-MP.

[6] = Erythrocyte 6-MP metabolite levels by reverse phase HPLC in IBD patients on 6-MP drug (Example I); conditions: erythrocytes
Method: Briefly, blood was sampled (n=89) prior to daily administration of 6-MP in 55 IBD patients (CD n=51, UC n=4) receiving 1-1.5 mg/kg/day over at least a 4 month period (≧4 mo.). When AZA was administered, a conversion factor of 2.07 was used to convert to the equivalent 6-MP dose. Twice as much AZA is administered relative to 6-MP to have an equivalent dose of 6-MP.
Erythrocyte 6-TG, 6-MMP and 6-MP thiobases were measured (pmol/8×10^8 RBC) using reverse phase HPLC. Briefly, blood samples were collected in EDTA (ethylene diamine tetraacetic acid) as anticoagulant. Cells were centrifuged and washed three times with an equal volume of 0.9% saline. Washed packed cells were stored at −70° C. until analysis was performed.
For acid hydrolysis, 500 μl deionized H2O, 50 μl thawed red blood cells, 40 μl of the appropriate standard or control, 500 μl 3.0 NH2SO4, and 300 μl 10 mM dithiothreitol (DTT) was added to an 8 ml glass screw cap tube. The capped tubes were placed in a heating block preheated to 100° C. and hydrolyzed. For 6-MMP, hydrolysis was carried out for 5 hours. For 6-MP and 6-TG, hydrolysis was carried out for 1 hour. After the incubation, tubes were cooled in a room temperature water bath. To tubes hydrolyzed for 5 hours (6-MMP), 400 μl 3.4 N NaOH and 1.0 ml 2 M Tris buffer, pH 9.0 was added. To tubes hydrolyzed for 1 hour (6-MP/6-TG), 450 μl 3.4 N NaOH and 500 μl 2M Tris base was added. A volume of 4 ml 0.03% phenylmercuric chloride in methylene chloride was added to each tube. The tubes were capped and lightly agitated on a bi-directional rotator (15 min for 6-MMP and 30 min for 6-MP/6-TG). The contents were transferred to a 15 ml polypropylene centrifuge tube and centrifuged at 3500 rpm for 3 min at 10° C. The aqueous phase (top layer) was discarded, and 3.0 ml of the organic phase (bottom layer) was transferred to a clean 15 ml polypropylene centrifuge tube. The analytes in the organic phase were back extracted by adding 225 μl 0.1 N HCl and lightly mixing on an orbital rotator for 5 min. Following vortexing for 30 seconds, the tubes were centrifuged at 3500 rpm for 3 min at 10° C.
For 6-MMP analysis, 50 μl analyte was analyzed on a C18 reverse phase column with the mobile phase containing 1 mM DTT, 2.078% triethylamine and 4% methanol, adjusted to pH 3.2 with concentrated H3PO4. For 6-MP and 6-TG analysis, 100 μl analyte was analyzed on a C18 reverse phase column using 0.1 M H3PO4 and 1 mM DTT in H2O as the mobile phase.
Clinical remission was defined as a Harvey Bradshaw Index <5 in those patients off corticosteroids or weaned to a level of prednisone ≦0.4 mg/kg/od (administered every other day). Treatment failures were defined as non-responders (HBI>5 or steroid dependence) or cessation of 6-MP due to side effects.

For `CSc1ncnc2nc[nH]c12` [6-MMP, 6-methyl-mercaptopurine], which “Median 6-MMP” value ([1]; Relapse, n=72 samples) is on record?
The value was 1602 pmol/8×10^8 RBC.

What about the “Median 6-MMP” value ([1]; Remission, n=106 samples) of the same compound?
Its value is 2600 pmol/8×10^8 RBC.

And the “6-MMP level associated with hepatotoxicity” value [2]?
The value was “greater than 7000 pmol 6-MMP/8×10^8”.

What about the “Ratio 6-MMP/6-TG” value ([3]; Boys (0-14 y)) of the same compound?
The value was 17.24.

And the 6-MMP level ([3]; Boys (0-14 y), 51 observed)?
Its 6-MMP level is 3681.6 pmol per 8 × 10^8 RBC.

What about the 6-MMP level ([3]; Boys (>14 y), 104 observed, p<0.001) of the same compound?
The 6-MMP level was 1662.3* pmol per 8 × 10^8 RBC.

What about the “Ratio 6-MMP/6-TG” value ([3]; Boys (>14 y), p<0.001) of the same compound?
The value was 6.78*.

What about the “Ratio 6-MMP/6-TG” value ([3]; Girls (0-12 y)) of the same compound?
Its value is 18.52.

What about the 6-MMP level ([3]; Girls (0-12 y), 39 observed) of the same compound?
Its 6-MMP level is 3447.0 pmol per 8 × 10^8 RBC.

What about the “Ratio 6-MMP/6-TG” value ([3]; Girls (>12 y)) of the same compound?
Its value is 12.55.

And the 6-MMP level ([3]; Girls (>12 y), 116 observed)?
Its 6-MMP level is 3304.5 pmol per 8 × 10^8 RBC.

With `Sc1ncnc2nc[nH]c12` [6-MP, 6-Mercaptopurine] as the compound, how does the “response of TPMT heterozygotes to 6-MP” value ([4]; 8 of 93 patients heterozygotes) read?
Its value is “All 8 heterozygotes responded”.

What about the Non. responder ([4]; TPMT Heterozygote IBD patients) of the same compound?
Its Non. responder is 0%.

And the Responder ([4]; TPMT Heterozygote IBD patients)?
The Responder was 100%.

What about the Non. responder ([4]; TPMT Normal IBD patients) of the same compound?
The Non. responder was 45%.

And the Responder ([4]; TPMT Normal IBD patients)?
The Responder was 55%.

With `Nc1nc2nc[nH]c2c(=S)[nH]1` [6-TG, 6-thioguanine] as the compound, how does the “median 6-TG” value ([1]; Relapse, n=72 samples) read?
The value was 197 pmol/8×10^8 RBC.

What about the “median 6-TG” value ([1]; Remission, n=106 samples, p<0.0001) of the same compound?
Its value is 309* pmol/8×10^8 RBC.

And the “mean 6-TG” value ([5]; TPMT Heterozygote patients, p less than 0.0001)?
Its value is 589*.

What about the “mean 6-TG” value ([5]; TPMT Normal patients) of the same compound?
The value was 247.

And the “6-TG levels of TPMT heterozygotes” value ([5]; all 8 heterozygotes)?
The value was > 230 pmol/8×10^8 RBC.

What about the “median 6-TG” value ([6]; Hematologic toxicity group, n=6, p<0.03) of the same compound?
Its value is 414+ pmol per 8×10^8 RBC.

And the “median 6-TG” value ([6]; Hepatic toxicity group, n=7)?
The value was 258 pmol per 8×10^8 RBC.

And the “median 6-TG” value ([6]; Non-responders, n=31, p<0.001)?
The value was 184* pmol per 8×10^8 RBC.

What about the “median 6-TG” value ([6]; Pancreatic toxicity group, n=6) of the same compound?
The value was 211 pmol per 8×10^8 RBC.

What about the “median 6-TG” value ([6]; Responders, n=58 samples, 6-MP 1-1.5 mg/kg/day ≥4 mo.) of the same compound?
Its value is 295 pmol per 8×10^8 RBC.

What about the 6-TG level ([3]; Boys (0-14 y), 51 observed) of the same compound?
Its 6-TG level is 235.0 pmol per 8 × 10^8 RBC.

What about the 6-TG level ([3]; Boys (>14 y), 104 observed) of the same compound?
The 6-TG level was 222.5 pmol per 8 × 10^8 RBC.

What about the 6-TG level ([3]; Girls (0-12 y), 39 observed) of the same compound?
Its 6-TG level is 182.2 pmol per 8 × 10^8 RBC.

What about the 6-TG level ([3]; Girls (>12 y), 116 observed) of the same compound?
The 6-TG level was 217.2 pmol per 8 × 10^8 RBC.
